Experiments:
[1] = target: cannabinoid CB1 receptors; assay: in vitro affinity for cannabinoid CB1 receptors (Rinaldi-Carmona et al., FEBS Letters 1994); format: binding; settings: conditions of Rinaldi-Carmona et al., FEBS Letters, 1994, 350, 240-244
[2] = toxicity

Chain of cannabinoid CB1 receptors (P21554 whole entry): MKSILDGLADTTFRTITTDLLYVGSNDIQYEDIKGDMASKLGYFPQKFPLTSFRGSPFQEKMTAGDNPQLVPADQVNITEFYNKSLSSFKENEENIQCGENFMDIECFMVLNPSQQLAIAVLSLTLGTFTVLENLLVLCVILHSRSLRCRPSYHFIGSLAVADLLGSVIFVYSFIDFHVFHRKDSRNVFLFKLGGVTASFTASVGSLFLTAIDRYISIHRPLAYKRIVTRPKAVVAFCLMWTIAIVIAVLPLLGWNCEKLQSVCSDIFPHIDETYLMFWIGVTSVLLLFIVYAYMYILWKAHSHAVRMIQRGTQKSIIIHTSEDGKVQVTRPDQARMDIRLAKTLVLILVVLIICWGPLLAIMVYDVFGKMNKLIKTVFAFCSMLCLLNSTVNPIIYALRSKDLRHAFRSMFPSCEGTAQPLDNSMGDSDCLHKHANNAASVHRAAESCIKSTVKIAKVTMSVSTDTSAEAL

IC50 [1]: 0.032 µM
Compound: CCc1c(C(=O)NN2CCC(O)CC2)nn(-c2ccc(Cl)cc2Cl)c1-c1ccc(Br)cc1 [compound of formula (I), 5-(4-Bromophenyl)-1-(2,4-dichlorophenyl)-4-ethyl-N-(hydroxypiperidin-1-yl)-1H-pyrazole-3-carboxamide]
toxicity [2]: compatible with its use as a medicinal product

Reference: patent US20060004055A1, “Derivative of 5-(4-bromophenyl)-1-(2,4-dichlorophenyl)-4-ethyl-N-(piperidine-1-yl)-1H-pyrazole-3-carboxamide, the preparation and therapeutic use thereof” (Sanofi-Aventis, priority 2002, published 2006)
